According to US8420592B2, “Methods of treatment using single doses of oritavancin” (The Medicines Company, priority 2008, dated 2013):
Where two headings read alike, the source gives them in different places.

What was measured:
[1] = Phase 2 cSSSI study: safety and tolerability; assay type: in vivo, human
Procedure: A phase 2, multi-center, randomized, double-blind, parallel, active-comparator study in which three dose regimens of oritavancin were explored as a treatment for cSSSI due to gram-positive pathogens was conducted using: a daily dose (200 mg) administered for three to seven days, a single dose (1200 mg), and an infrequent dose (800 mg dose with option for an additional 400 mg on Day 5).
Patients were randomized through an interactive voice response system in a 1:1:1 ratio to receive either 1) oritavancin […] daily dose: 200 mg IV daily for 3 to 7 days as determined by the investigator based on clinical criteria, 2) oritavancin single dose: 1200 mg oritavancin IV on Day 1, or; 3) oritavancin infrequent dose: 800 mg IV on Day 1 with optional 400 mg IV on Day 5 as determined by investigator based on clinical criteria. During randomization patients were stratified by disease categories of wound infection, major abscess, and cellulitis. Placebo IV (5% dextrose in water) was given to maintain the blind.
Analyses were performed on four patient populations: intent-to-treat (ITT), modified intent-to-treat (MITT), clinically evaluable (CE) and microbiologically evaluable (ME). The ITT population included patients who were randomized to treatment and received any amount of study medication. Two patients who were potentially unblinded were excluded from the ITT population for all efficacy analyses. The MITT population included all ITT patients with a gram-positive pathogen isolated at baseline.

[2] = clinical; assay type: in vivo, human
Procedure: A pharmacokinetic (PK) analysis was conducted of oritavancin from patients having complicated skin and skin structure infections (cSSSI) or bacteremia. The population for the analysis consisted of oritavancin-treated subjects and patients from 12 studies, consisting of nine Phase 1 studies, two Phase 2 studies, and one Phase 2/3 study. Oritavancin was administered as both single- and multiple-dose intravenous (IV) infusions in fixed doses ranging from 100 to 800 mg or weight-based doses ranging from 0.02 to 10 mg/kg.
Results: The final analysis population contained data from a total of 560 subjects: 200 from the Phase 1 studies, 86 from the Phase 2 bacteremia study, 29 from the Phase 2 cSSSI study, and 245 from the Phase 2/3 cSSSI study. The final pharmacokinetic analysis dataset contained a total of 6,336 oritavancin plasma concentrations, collected from these 560 subjects, of which 6,290 oritavancin concentrations were included in the results. The majority of subjects (>90%) contributed at least six samples to the population pharmacokinetic analysis.
A wide range of oritavancin doses was administered across the studies included in the population PK analysis, where 42% (236 of 560) of subjects received ≧400 mg, while 25% (142 of 560) received 800 mg or more. A histogram of the oritavancin doses administered is shown in FIG. 6, with midpoint values for each dose range shown over each bar. The duration over which oritavancin was infused ranged from 0.13 to 6.5 hr across all studies; however, oritavancin was administered over 1 hr for the majority of subjects. Histograms of the actual infusion durations and rates are shown in FIGS. 7 and 8, respectively, with midpoint values shown for each infusion duration or rate over each bar.
The final structural PK model for oritavancin in this analysis was a three-compartment model (one central, two peripheral) with a zero-order intravenous infusion rate and first-order, linear elimination. The model fit the data well (data not shown), regardless of the observed concentration or administered dose. If a nonlinear model had been necessary, there would have been significant bias in the weighted residuals at the lowest and/or highest concentrations and/or doses. No trends for decreasing CL with increasing dose were found.

CN[C@H](CC(C)C)C(=O)N[C@H]1C(=O)N[C@@H](CC(N)=O)C(=O)N[C@H]2C(=O)N[C@H]3C(=O)N[C@H](C(=O)N[C@H](C(=O)O)c4cc(O)cc(O)c4-c4cc3ccc4O)[C@H](O[C@H]3C[C@](C)(N)[C@@H](O)[C@H](C)O3)c3ccc(c(Cl)c3)Oc3cc2cc(c3O[C@@H]2O[C@H](CO)[C@@H](O)[C@H](O)[C@H]2O[C@H]2C[C@](C)(NCc3ccc(-c4ccc(Cl)cc4)cc3)[C@@H](O)[C@H](C)O2)Oc2ccc(cc2Cl)[C@H]1O [Oritavancin, N-(4-(4-chlorophenyl)benzyl)A82846B]
Patients with a serious adverse event ([1]; all groups (25 patients)): 8.3% | Early discontinuation of study medication for lack of efficacy ([1]; all three treatment groups together (10/302)): 3.3% | Adverse events being mild ([1]; daily dose group): 51.8% | Adverse events considered mild or moderate in intensity ([1]; daily dose group): 85.7% | Incidence of serious adverse events ([1]; daily dose group): 11% | Patients who discontinued study medication due to an adverse event ([1]; daily dose group): 3.0% | Patients with phlebitis assessed as related to study medication ([1]; daily dose group): 3.0% | Patients who died during the study (n/total) ([1]; daily dose group, none related to study medication): 3/100 | Adverse events being mild ([1]; infrequent dose group): 60.3% | Adverse events considered mild or moderate in intensity ([1]; infrequent dose group): 95.2% | Incidence of serious adverse events ([1]; infrequent dose group): 6.8% | Patients who discontinued study medication due to an adverse event ([1]; infrequent dose group): 1.0% | Patients with phlebitis assessed as related to study medication ([1]; infrequent dose group): 8.7% | Patients with related phlebitis ([1]; infrequent dose group, 800 mg only): 11.8% | Patients with related phlebitis ([1]; infrequent dose group, 800 mg plus the 400 mg dose): 7.2% | Patients who died during the study (n/total) ([1]; infrequent dose group, none related to study medication): 2/103 | Adverse events being mild ([1]; single dose group): 58.2% | Adverse events considered mild or moderate in intensity ([1]; single dose group): 94.5% | Incidence of serious adverse events ([1]; single dose group): 7.1% | Patients who died during the study (n/total) ([1]; single dose group): 0/99 | Patients who discontinued study medication due to an adverse event ([1]; single dose group): 3.0% | Patients with phlebitis assessed as related to study medication ([1]; single dose group): 4.0% | Serious adverse event investigator-assessed as related to study medication ([1]; single dose group (dyspnoea; hypersensitivity)): Two | Blood creatine phosphokinase (CPK) increase ([1]; single dose group compared to the daily and infrequent dose groups): higher incidence | Cmin, Mean ([2]; 180-330 mg/day (n = 140)): 2580 ng/mL | Cmin, Median ([2]; 180-330 mg/day (n = 140)): 2200 ng/mL | Cmin, Mean ([2]; <180 mg/day (n = 181)): 1170 ng/mL | Cmin, Median ([2]; <180 mg/day (n = 181)): 949 ng/mL | Cmin, Mean ([2]; >330 mg/day (n = 239)): 12500 ng/mL | Cmin, Median ([2]; >330 mg/day (n = 239)): 11000 ng/mL | Vc ([2]; healthy subjects, Multiple Dose (n = 109)): 5.10 L | Cmin ([2]; healthy subjects, Multiple Dose (n = 109), normalized to a dose of 200 mg, after a median of 4 (2-14) days): 11500 ng/mL | Vc ([2]; healthy subjects, Single Dose (n = 91)): 5.30 L | Cmin ([2]; healthy subjects, Single Dose (n = 91), normalized to a dose of 200 mg): 3300 ng/mL | Plasma half-life ([2]; human, in vivo): prolonged | AUC(0-t) ([2]; human, in vivo, 200 mg, healthy subjects, Multiple Dose (n = 109), normalized to a dose of 200 mg, after a median of 4 (2-14) days, read-out: AUC0-24): 459 µg·h/mL | Cmax ([2]; human, in vivo, 200 mg, healthy subjects, Multiple Dose (n = 109), normalized to a dose of 200 mg, after a median of 4 (2-14) days, read-out: Cmax): 46800 ng/mL | AUC(0-t) ([2]; human, in vivo, 200 mg, healthy subjects, Single Dose (n = 91), normalized to a dose of 200 mg, read-out: AUC0-24): 216 µg·h/mL | Cmax ([2]; human, in vivo, 200 mg, healthy subjects, Single Dose (n = 91), normalized to a dose of 200 mg, read-out: Cmax): 33900 ng/mL | AUC(0-t) ([2]; human, in vivo, 180-330 mg/day (n = 140), read-out: AUC0-24, Mean): 181 µg·h/mL | AUC(0-t) ([2]; human, in vivo, 180-330 mg/day (n = 140), read-out: AUC0-24, Median): 171 µg·h/mL | clearance ([2]; human, in vivo, 180-330 mg/day (n = 140), read-out: CL, Mean (converted)): 9.57 mL/min | clearance ([2]; human, in vivo, 180-330 mg/day (n = 140), read-out: CL, Median (converted)): 9.07 mL/min | Cmax ([2]; human, in vivo, 180-330 mg/day (n = 140), read-out: Cmax, Mean): 33400 ng/mL | Cmax ([2]; human, in vivo, 180-330 mg/day (n = 140), read-out: Cmax, Median): 30000 ng/mL | half-life ([2]; human, in vivo, 180-330 mg/day (n = 140), read-out: T1/2, α, Mean (converted)): 2.13 h | half-life ([2]; human, in vivo, 180-330 mg/day (n = 140), read-out: T1/2, α, Median (converted)): 2.13 h | half-life ([2]; human, in vivo, 180-330 mg/day (n = 140), read-out: T1/2, β, Mean (converted)): 29.7 h | half-life ([2]; human, in vivo, 180-330 mg/day (n = 140), read-out: T1/2, β, Median (converted)): 29.3 h | half-life ([2]; human, in vivo, 180-330 mg/day (n = 140), read-out: T1/2, γ, Mean (converted)): 376 h | half-life ([2]; human, in vivo, 180-330 mg/day (n = 140), read-out: T1/2, γ, Median (converted)): 373 h | AUC(0-t) ([2]; human, in vivo, <180 mg/day (n = 181), read-out: AUC0-24, Mean): 90 µg·h/mL | AUC(0-t) ([2]; human, in vivo, <180 mg/day (n = 181), read-out: AUC0-24, Median): 73.6 µg·h/mL | clearance ([2]; human, in vivo, <180 mg/day (n = 181), read-out: CL, Mean (converted)): 9.3 mL/min | clearance ([2]; human, in vivo, <180 mg/day (n = 181), read-out: CL, Median (converted)): 9.17 mL/min | Cmax ([2]; human, in vivo, <180 mg/day (n = 181), read-out: Cmax, Mean): 17800 ng/mL | Cmax ([2]; human, in vivo, <180 mg/day (n = 181), read-out: Cmax, Median): 14300 ng/mL | half-life ([2]; human, in vivo, <180 mg/day (n = 181), read-out: T1/2, α, Mean (converted)): 2.01 h | half-life ([2]; human, in vivo, <180 mg/day (n = 181), read-out: T1/2, α, Median (converted)): 1.97 h | half-life ([2]; human, in vivo, <180 mg/day (n = 181), read-out: T1/2, β, Mean (converted)): 27.4 h | half-life ([2]; human, in vivo, <180 mg/day (n = 181), read-out: T1/2, β, Median (converted)): 27.5 h | half-life ([2]; human, in vivo, <180 mg/day (n = 181), read-out: T1/2, γ, Mean (converted)): 376 h | half-life ([2]; human, in vivo, <180 mg/day (n = 181), read-out: T1/2, γ, Median (converted)): 387 h | AUC(0-t) ([2]; human, in vivo, >330 mg/day (n = 239), read-out: AUC0-24, Mean): 750 µg·h/mL | AUC(0-t) ([2]; human, in vivo, >330 mg/day (n = 239), read-out: AUC0-24, Median): 712 µg·h/mL | clearance ([2]; human, in vivo, >330 mg/day (n = 239), read-out: CL, Mean (converted)): 7.35 mL/min | clearance ([2]; human, in vivo, >330 mg/day (n = 239), read-out: CL, Median (converted)): 6.68 mL/min | Cmax ([2]; human, in vivo, >330 mg/day (n = 239), read-out: Cmax, Mean): 106000 ng/mL | Cmax ([2]; human, in vivo, >330 mg/day (n = 239), read-out: Cmax, Median): 105000 ng/mL | half-life ([2]; human, in vivo, >330 mg/day (n = 239), read-out: T1/2, α, Mean (converted)): 2.45 h | half-life ([2]; human, in vivo, >330 mg/day (n = 239), read-out: T1/2, α, Median (converted)): 2.35 h | half-life ([2]; human, in vivo, >330 mg/day (n = 239), read-out: T1/2, β, Mean (converted)): 31.4 h | half-life ([2]; human, in vivo, >330 mg/day (n = 239), read-out: T1/2, β, Median (converted)): 29.3 h | half-life ([2]; human, in vivo, >330 mg/day (n = 239), read-out: T1/2, γ, Mean (converted)): 353 h | half-life ([2]; human, in vivo, >330 mg/day (n = 239), read-out: T1/2, γ, Median (converted)): 347 h | clearance ([2]; human, in vivo, healthy subjects, Multiple Dose (n = 109), read-out: CL (converted)): 5.15 mL/min | half-life ([2]; human, in vivo, healthy subjects, Multiple Dose (n = 109), read-out: T1/2, α (converted)): 2.82 h | half-life ([2]; human, in vivo, healthy subjects, Multiple Dose (n = 109), read-out: T1/2, β (converted)): 33 h | half-life ([2]; human, in vivo, healthy subjects, Multiple Dose (n = 109), read-out: T1/2, γ (converted)): 320 h | clearance ([2]; human, in vivo, healthy subjects, Single Dose (n = 91), read-out: CL (converted)): 6.7 mL/min | half-life ([2]; human, in vivo, healthy subjects, Single Dose (n = 91), read-out: T1/2, α (converted)): 2.25 h | half-life ([2]; human, in vivo, healthy subjects, Single Dose (n = 91), read-out: T1/2, β (converted)): 19.8 h | half-life ([2]; human, in vivo, healthy subjects, Single Dose (n = 91), read-out: T1/2, γ (converted)): 316 h
